Consider three molecules from patent US20260294874A1, “COMPOSITIONS COMPRISING MODULATORS OF RIBONUCLEOPROTEIN GRANULE FORMATION AND DISSOLUTION AND METHODS OF USE THEREOF” (University of Virginia Patent Foundation, priority 2023, published 2026).

The target in this test is T1, recombinant EDC3 (Homo sapiens, UniProt Q96F86).
T1 construct: FLAG; expressed in transfected cells; host or cells: HEK293T
T1 sequence (Q96F86 1-508): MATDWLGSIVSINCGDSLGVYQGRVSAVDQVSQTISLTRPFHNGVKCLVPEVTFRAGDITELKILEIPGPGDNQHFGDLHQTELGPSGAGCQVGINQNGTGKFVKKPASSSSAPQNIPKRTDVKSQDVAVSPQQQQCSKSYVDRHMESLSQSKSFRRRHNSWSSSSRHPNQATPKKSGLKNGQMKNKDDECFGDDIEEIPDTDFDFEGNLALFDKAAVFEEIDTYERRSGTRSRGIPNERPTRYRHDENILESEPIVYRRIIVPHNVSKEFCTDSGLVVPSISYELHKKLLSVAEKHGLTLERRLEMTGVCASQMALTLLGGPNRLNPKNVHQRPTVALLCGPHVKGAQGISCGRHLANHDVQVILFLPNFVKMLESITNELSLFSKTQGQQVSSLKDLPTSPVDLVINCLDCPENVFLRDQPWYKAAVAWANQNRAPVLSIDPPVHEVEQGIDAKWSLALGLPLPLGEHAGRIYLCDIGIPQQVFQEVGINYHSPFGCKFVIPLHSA
The test is described as follows: Competitive gel-based ABPP, HHS-465 probe labeling of recombinant EDC3 in HEK293T cells. It counts as cell-based. Particulars: for inhibition of HHS-465 probe labeling of recombinant EDC3 (in words): 25 μM, 2 h (FIG. 4F), 0.1-100 μM for concentration dependence (FIG. 4D). The text has this:
FIGS. 4A-4F. Discovery of a SuTEx ligand for the hyper-reactive EDC3 Y475 site. (FIG. 4A) Overlap of liganded sites from SuTEx PB modulators with reported RNA granule induction-sensitive lysine and tyrosine sites (RISKYs; Ciancone et al., 2022). The five overlapping sites were further compared to previously reported hyper-RISKY sites (Ciancone et al., 2022) resulting in the identification of the tyrosine-475 (Y475) site on EDC3. (FIG. 4B) Representative immunofluorescence images depicting decreased PBs and increased SGs in AHL-030-treated cells under stress conditions. EKT235 is shown as a negative control. See FIGS. 8 and 9 for additional details. (FIG. 4C) Representative MS1 extracted ion chromatograms (EICs) showing EDC3 Y475 (i.e., amino acid 2 of the peptide sequence […]; SEQ ID NO: 1, which corresponds to amino acids 474-500 of the human enhancer of mRNA-decapping protein 3 isoform 1 polypeptide of GENBANK® Accession No. NP_001135915.1) is liganded by AHL-030 but not EKT235 [SILAC ratio or SR>2 for DMSO vehicle (light, red)/SuTEx fragment ligand (heavy, blue) treatment conditions]. Enrichment (HHS-465/DMSO) and 1:1 (HHS-465/HHS-465) controls are shown. SRs are calculated as the integrated area under the curve ratio of light-to-heavy peptide. Data are representative of n=2-3 biologically independent replicates. […] EDC3-expressing HEK293T cells were pretreated with varying concentrations of AHL-030 (0.1-100 μM, 2 hours) followed by lysis and probe labeling of soluble proteomes with HHS-465 (100 μM, 1 h, RT). The in situ IC50 for EDC3 probe labeling inhibition by AHL-030 was estimated to be ~6 μM. […] Data shown are mean±SEM and representative of n=3 biologically independent replicates. […] Western blots comparing recombinant expression of EDC3 (α-FLAG) and loading controls (α-GAPDH) are shown. Data are representative of n=2 biologically independent replicates.
Among the candidate PB-modulating SuTEx compounds, we focused on AHL-030 because of its PB-inhibitory, SG-enhancing activity in stressed cells and ability to ligand the EDC3 Y475 site (SR >2; FIGS. 4B and 4C). Importantly, we identified a restricted number of reproducibly liganded sites (7 in total) in addition to EDC3 Y475 in chemoproteomic profiling studies of AHL-030 (FIG. 12). We further confirmed AHL-030 as an EDC3 ligand using competitive activity-based protein profiling (ABPP; Grams & Hsu, 2022). Recombinant EDC3-expressing HEK293T cells were treated with a panel of RNP granule modulators including AHL-030 and the negative control compound EKT235 to evaluate structure-activity relationships (SAR, 25 μM compounds, 2 h). Cells were lysed and soluble proteomes labeled with HHS-465 (100 μM, 1 h, RT) followed by CuAAC with rhodamine-azide, SDS-PAGE and in-gel fluorescence scanning. […] Using the in vitro IC50, we calculated the lipophilic efficiency (LipE) of AHL-030 to be ~7, which falls in the range of acceptable lipophilicity in relation to potency (Leeson & Springthorpe, 2007).

Several values for one entry are separate records, joined by “and”; a condition that tells them apart may be missing. Equal entries are not always repeated. Entries after “also recorded” stand apart in the source; their conditions may differ. Where two headings read alike, the source gives them in different places.

Regarding `CC(C)c1cc(C(C)C)c(S(=O)(=O)n2cc(-c3ccc(C(F)(F)F)cc3)nn2)c(C(C)C)c1` [AHL-003], the “inhibition of HHS-465 probe labeling of recombinant EDC3 (in words)” value (“inhibition” below) (HHS-465 100 μM, 1 h, RT) is “largely inactive”.
On to `COc1ccc(S(=O)(=O)n2cc(CS(C)(=O)=O)nn2)cc1` [AHL-030, 1-((4-Methoxyphenyl)sulfonyl)-4-((methylsulfonyl)methyl)-1H-1,2,3-triazole], for which the “inhibition” value (HHS-465 100 μM, 1 h, RT) is recorded as “blocked HHS-465 probe labeling of EDC3 in a concentration-dependent manner; also recorded: concentration-dependent binding to recombinant EDC3; also recorded: competition of HHS-465 probe labeling”. For the same molecule, the “pIC50/EC50: pIC50” value (AHL-030, used for LipE) is 5.3. For the same molecule, the IC50 is, setting by setting: (IC50 (AHL-030), EDC3 probe labeling, read-out: IC50/EC50 (M): IC50) 5.6e-06 M; (in situ, 0.1-100 μM, 2 h, HHS-465 100 μM, 1 h, RT, n=3, read-out: IC50 for EDC3 probe labeling inhibition) 6e-06 M and ~6e-06 M.
On to `N#Cc1ccc(S(=O)(=O)n2cc(-c3cccc(Cl)c3)nn2)cc1` [EKT231, 4-((4-(3-Chlorophenyl)-1H-1,2,3-triazol-1-yl)sulfonyl)benzonitrile], for which, for the setting “HHS-465 100 μM, 1 h, RT”, the “inhibition” value was “largely inactive”.
